The source of these data is paper PMC7021728, “Structure of the agonist 12–HHT in its BLT2 receptor-bound state” (Scientific Reports, 2020).

Numbering of substitutions follows the chain as printed.

By Kd is commonly meant the constant that tells how readily two partners part at equilibrium.

In assay [1] the target is T1, BLT2 R270^7.35A (Homo sapiens, UniProt Q9NPC1, R270A).
T1 construct: made in house
T1 sequence (Q9NPC1 1-358 R270A): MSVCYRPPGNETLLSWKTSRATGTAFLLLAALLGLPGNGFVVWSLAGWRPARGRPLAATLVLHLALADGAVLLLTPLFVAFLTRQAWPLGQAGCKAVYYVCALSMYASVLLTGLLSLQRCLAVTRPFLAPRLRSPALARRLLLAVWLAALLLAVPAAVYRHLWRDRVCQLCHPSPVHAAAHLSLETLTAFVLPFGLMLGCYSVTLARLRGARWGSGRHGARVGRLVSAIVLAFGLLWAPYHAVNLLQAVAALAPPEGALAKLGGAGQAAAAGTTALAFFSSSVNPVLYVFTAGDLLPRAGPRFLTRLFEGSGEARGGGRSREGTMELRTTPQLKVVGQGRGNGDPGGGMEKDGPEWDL
Briefly: Gi protein activation catalyzed by BLT2 mutant. It counts as biochemical. The settings on record: R270 mutation compared to wild-type, in words. On the procedure: (§1) All mutations were introduced in the wild-type BLT2 receptor by PCR-mediated mutagenesis using the QuickChange multisite-directed mutagenesis kit (Stratagene) and the wild-type BLT2 construct as a template. Mutations were confirmed by nucleotide sequencing.
(§2) Gαi2 and Gβ1γ2 were prepared as previously described. Briefly, agonist-dependent functional coupling of the purified receptor to Gαi2β1γ2 was assessed through the rate of GTPγS binding at increasing agonist concentrations determined by monitoring the relative increase in the intrinsic fluorescence ( λexcitation=300nm , λemission=345nm ) of Gαi2 (200 nM of purified G protein) in the presence of BLT2 (20 nM) in buffer containing 10 mM MOPS, pH 7.2, 130 mM NaCl, and 2 mM MgCl2 at 15 °C after the addition of 10 μM GTPγS. The data were normalized to the fluorescence maximum obtained in the presence of saturating concentrations in 12–HHT (10 μM).

Assay [2] deals with T2, BLT2 S174^ECL2A (Homo sapiens, UniProt Q9NPC1, S174A).
T2 construct: made in house
T2 sequence (Q9NPC1 1-358 S174A): T1 sequence (Q9NPC1 1-358 R270A) with S174A, A270R
The experiment in a line: Gi protein activation catalyzed by BLT2 mutant. In kind it is biochemical. The settings on record: S174 mutation compared to wild-type, in words. Here is the method: as §1, §2

Assay [3] addresses BLT1. Also on record: method as in PMID 10934230. The settings on record: membrane fractions, BLT1 transfected HEK 293 cells; in cellulo; read-out: equilibrium dissociation constant (Kd); cited from earlier work.
Assay [4] has as its target BLT2. Also on record: method as in PMID 10934230. The conditions noted are these: cited from earlier work.
Assay [5] deals with purified BLT2 receptor. On the set-up: method as in PMID 21688157. The conditions noted are these: purified BLT2 associated with amphipols in solution, in vitro; cited from earlier work.
Assay [6] concerns BLT1 (residue R156 in BLT1 mutated to alanine). Also on record: method as in PMID 17237498. The conditions noted are these: in words; cited from earlier work.

Consider `CCCCC/C=C\C[C@@H](O)/C=C/C=C/C=C\[C@@H](O)CCCC(=O)O` [LTB4, leukotriene B4], for which the “effect of the mutation on ligand binding” value in assay [1] and in assay [2] was “does not affect the binding” in each case. Also, the Kd in assay [3] was around 1 nM; in assay [4] (membrane fractions, BLT2 transfected HEK 293 cells, in cellulo, read-out: equilibrium dissociation constant (Kd)), around 20 nM; in assay [5] it was around 200 nM. Also, the “Kd weaker in the case of BLT2 compared to BLT1” value in assay [4] (transfected HEK 293 cells) is given as 20 fold. The “effect of the mutation on LTB4 binding” value in assay [6] was “complete loss of LTB4 binding”.
